Laboratory results: patent publication US20250368639A1, “SOLID FORMS OF A COMPOUND FOR TREATING OR PREVENTING HYPERURICEMIA OR GOUT” (ATOM THERAPEUTICS CO., LTD, priority 2022, published 2025)
Values after ≈ are worked out from the molar mass of the structure shown.

Tests used:
Assay type in all cases: physicochemical
[1] = Dynamic vapor sorption/desorption (DVS); conditions: 25° C., 85% RH
Method: Moisture sorption/desorption data were collected on a SMS DVS intrinsic Vapor Sorption Analyzer under a nitrogen purge. The DVS experiment generally includes a moisture sorption step and a moisture desorption step. […] In other words, the sample is considered to have reached an equilibrium between moisture sorption and desorption under the relative humidity when dm/dt≤0.01%. The sample was maintained at the temperature of 25° C. with relative humidity varied from 0% to 95%, and back to 0% at an increment of 5% RH each step.

[2] = Solubility in water, buffers and bio-relevant media (37° C., 24 h shaking, HPLC); conditions: for Solubility: 37° C., 24 h; for Appearance / solubility in water: shaken about 24 hours, compared with Form 1
Method: The solubility of Form 1, Form 2, Form 5D, Form 6, Form 8, and Form 11 was analyzed in water, 0.1NaqueousHCl, pH4.5 acetate buffer solution, pH6.8 phosphate buffer solution, simulated gastric fluid (SGF), Fasted State Simulated Intestinal Fluid (FaSSIF), and Fed State Simulated Intestinal Fluid (FeSSIF).
About 5 mg or 10 mg of sample was weighed out into each vial and mixed with about 5 ml of medium to form a solution. The target concentration for the potassium salt in water was 2 mg/ml; and the target concentration for all other forms were 1 mg/mL. All samples were kept shaking at 200 rounds per minute (rpm) under 37° C. for 24 hours. The pH value of these samples were determined after shaking for 24 hours. Subsequently, they were centrifuged at the speed of 12000 rpm for 2 mins. The supernatant was diluted with methanol as necessary, and the concentrations were determined by HPLC. When the solubility of potassium salt was tested in water, the supernatant was diluted 100 times, while no other samples were diluted. The HPLC analysis utilizes Agilent Eclipse XDB-C8 4.6*150 mm, 5 μm column at 40° C., a mobile phase of 0.1% TFA: ACN=70:30, an injection volume of 10 μl, a flow rate of 1.0 ml/min, a diluent of methanol, and a detection wavelength of 234 nm.

[3] = Slurry stability in purified water (XRPD); conditions: stirred overnight at room temperature
Method: About 30 mg of Form land Form 5D, Form 6, and Form 8 were mixed with about 2.5 ml of purified water, and the mixtures were stirred for overnight at room temperature. The wet solids were isolated by centrifugation, and further dried in vacuum for 2.5 hours before being analyzed with XRPD.

[4] = Solid state stability under stress conditions (XRPD, HPLC); conditions: closed vial about 60° C.; closed vial about 40° C./75% RH; 1 week and 2 weeks
Method: Form 1. Form 2, Form 6, Form 8, and Form 11 were each placed under following stress conditions: (1) in a closed vial at a temperature of about 60° C., and (2) in a closed vial at a temperature of about 40′° C. and a humidity of about 75% RH. The solids were analyzed with XRPD at 1 week and 2 weeks intervals.
Additionally, all forms were analyzed with HPLC for impurity at the 1 week and 2 weeks intervals. In a typical analysis, about 5 mg of forms were each dissolved in 10 ml of diluents with the aid of sonication for 2 minutes. THF was used as the diluent for Form 1, and methanol was used as the diluent for Form 6, Form 8, and Form 11. The HPLC analysis utilized Agilent Eclipse XDB-C18 4.6*150 mm. 3.5 μm at 30° C., a mobile phase of a gradient between 0.1% H3PO4 and acetonitrile (9:1 to 2:8 to 9:1), an injection volume of 10 μl, a flow rate of 1.0 ml/min, and a detection wavelength of 214 nm.
Form 2 was further subject to the stability test in an open vial at 40° C. and a relative humidity of 75% RH.

CCc1nc2ccccn2c1C(=O)c1cc(Br)c(O)c(C#N)c1 [Form 6, 3-bromo-5-[(2-ethylimidazo[1,2-a]pyridin-3-yl)carbonyl]-2-hydroxybenzonitrile]
DVS (85% RH) [1]: 0.35% | Solubility ([2]; 0.1N HCl): 4.6 µg/mL (≈ 12.4 µM) | Solubility ([2]; FaSSIF): 45.8 µg/mL (≈ 124 µM) | Solubility ([2]; FeSSIF): 4.4 µg/mL (≈ 11.9 µM) | Solubility ([2]; SGF): 3.3 µg/mL (≈ 8.91 µM) | Solubility ([2]; Water): 0.4 µg/mL (≈ 1.08 µM) | Solubility ([2]; pH 4.5 acetate buffer): 0.5 µg/mL (≈ 1.35 µM) | Solubility ([2]; pH 6.8 phosphate buffer): 25.7 µg/mL (≈ 69.4 µM) | Appearance / solubility in water [2]: reduced solubility in water | Crystal form after slurry in purified water (XRPD) [3]: transformed into Form 1 | XRPD pattern after stress storage [4]: substantially similar to those received at the initial time

CCc1nc2ccccn2c1C(=O)c1cc(Br)c(O)c(C#N)c1 [Form 7, 3-bromo-5-[(2-ethylimidazo[1,2-a]pyridin-3-yl)carbonyl]-2-hydroxybenzonitrile]
DVS (85% RH) [1]: 1.93%

CCc1nc2ccccn2c1C(=O)c1cc(Br)c(O)c(C#N)c1 [Form 8, 3-bromo-5-[(2-ethylimidazo[1,2-a]pyridin-3-yl)carbonyl]-2-hydroxybenzonitrile]
DVS (85% RH) [1]: 4.66% | Solubility ([2]; 0.1N HCl): 5.3 µg/mL (≈ 14.3 µM) | Solubility ([2]; FaSSIF): 14.5 µg/mL (≈ 39.2 µM) | Solubility ([2]; FeSSIF): 8.6 µg/mL (≈ 23.2 µM) | Solubility ([2]; SGF): 3.5 µg/mL (≈ 9.45 µM) | Solubility ([2]; Water): 0.5 µg/mL (≈ 1.35 µM) | Solubility ([2]; pH 4.5 acetate buffer): 0.6 µg/mL (≈ 1.62 µM) | Solubility ([2]; pH 6.8 phosphate buffer): 17.9 µg/mL (≈ 48.4 µM) | Appearance / solubility in water [2]: reduced solubility in water | Crystal form after slurry in purified water (XRPD) [3]: transformed into Form 1 | XRPD pattern after stress storage [4]: substantially similar to those received at the initial time

CCc1nc2ccccn2c1C(=O)c1cc(Br)c(O)c(C#N)c1 [Form 9, 3-bromo-5-[(2-ethylimidazo[1,2-a]pyridin-3-yl)carbonyl]-2-hydroxybenzonitrile]
DVS (85% RH) [1]: 0.29%

CCc1nc2ccccn2c1C(=O)c1cc(Br)c(O)c(C#N)c1 [Form 10, 3-bromo-5-[(2-ethylimidazo[1,2-a]pyridin-3-yl)carbonyl]-2-hydroxybenzonitrile]
DVS (85% RH) [1]: 2.37%

CCc1nc2ccccn2c1C(=O)c1cc(Br)c(O)c(C#N)c1 [Form 11, 3-bromo-5-[(2-ethylimidazo[1,2-a]pyridin-3-yl)carbonyl]-2-hydroxybenzonitrile]
DVS (85% RH) [1]: 6.18% | Solubility ([2]; 0.1N HCl): 6.8 µg/mL (≈ 18.4 µM) | Solubility ([2]; FaSSIF): 28.4 µg/mL (≈ 76.7 µM) | Solubility ([2]; FeSSIF): 3.4 µg/mL (≈ 9.18 µM) | Solubility ([2]; SGF): 5.8 µg/mL (≈ 15.7 µM) | Solubility ([2]; Water): 1914.5 µg/mL (≈ 5170 µM) | Solubility ([2]; pH 4.5 acetate buffer): 1.7 µg/mL (≈ 4.59 µM) | Solubility ([2]; pH 6.8 phosphate buffer): 31.0 µg/mL (≈ 83.7 µM) | Appearance / solubility in water [2]: nearly clear solution in water | XRPD pattern after stress storage [4]: substantially similar to those received at the initial time

CCc1nc2ccccn2c1C(=O)c1cc(Br)c(O)c(C#N)c1 [Form 12, 3-bromo-5-[(2-ethylimidazo[1,2-a]pyridin-3-yl)carbonyl]-2-hydroxybenzonitrile]
DVS (85% RH) [1]: 8.07%
